Results taken from patent publication US9902736B2, “1-oxo/acylation-14-acylated oridonin derivative, preparation method therefor and application thereof” (HANGZHOU BENSHENG PHARMACEUTICAL CO., LTD., priority 2012, dated 2018).
≈ marks a conversion by molar mass, not a printed value.

Assays:
K562/ADR = assay: Leukemia cell growth inhibition, MTT, 72 h; assay type: cell-based; details: Homo sapiens
From the text: (§1) Leukemia cell lines: leukemia cell lines: K562/adr (drug-resistant, chronic myeloid leukemia, CML), NB4 (acute promyelocytic leukemia, AML), Kasumi-1 (acute myeloid leukemia M2 type, AML-M2), Jurkat (acute lymphoblastic leukemia, ALL), all of which were donated by Cancer Research Institute of Zhejiang University, China; and H9 (acute lymphoblastic leukemia, ALL), which was purchased from China Center for Type Culture Collection.
(§2) 6000 well-growing leukemia cells were obtained and inoculated into wells of a 96-well cell culture plate. […] On the next day, the 1-oxo/acylated-14-acylated oridonin derivatives of different concentrations were added and mixed uniformly. The plate was placed in a carbon dioxide cell incubator (5% CO2) at 37° C. and was incubated for 72 hours. Then the viable cell concentration was determined by MTT method.

Kasumi-1 = assay: Leukemia cell growth inhibition, MTT, 72 h; assay type: cell-based; details: Homo sapiens
From the text: as §1, §2

H9 = assay: Leukemia cell growth inhibition, MTT, 72 h; assay type: cell-based, human; details: for IC50 / IC90: Homo sapiens, H9, 72 h, MTT
From the text: as §1, §2

Jurkat = assay: Leukemia cell growth inhibition, MTT, 72 h; assay type: cell-based, human; details: Homo sapiens, Jurkat; 72 h, MTT
From the text: as §1, §2

NB4 = assay: Leukemia cell growth inhibition, MTT, 72 h; assay type: cell-based, human; details: for IC50 / IC90: Homo sapiens, NB-4, 72 h, MTT
From the text: as §1, §2

RPMI 8226 = assay: Multiple myeloma cell growth inhibition, MTT, 72 h; assay type: cell-based; details: Homo sapiens
Experimental: Multiple myeloma cell lines: RPMI8226 (multiple myeloma), purchased from Fuxiang Bio-tech Co. Ltd., Shanghai, China.
as §2, with “well-growing” for “well-growing leukemia”, “and” for “and was”

CNE = assay: Solid tumor cell growth inhibition, MTT, 72 h; assay type: cell-based, human; details: Homo sapiens, CNE; 72 h, MTT
Experimental: (§3) 6000 well-growing human solid tumor cells were obtained and inoculated into wells of a 96-well cell culture plate. The culture medium was DMEM High Glucose cell culture medium containing 10% fetal bovine serum. The plate was placed in a carbon dioxide cell incubator (5% CO2) at 37° C. and incubated for 24 hours. After added with 1-oxo/acylated-14-acylated oridonin derivatives of different concentration and mixed uniformly, the plate was placed in a carbon dioxide cell incubator (5% CO2) at 37° C. and incubated for 72 hours. Then the viable cell concentration was determined by MTT method.

Hela = assay: Solid tumor cell growth inhibition, MTT, 72 h; assay type: cell-based, human; details: Homo sapiens, HeLa; 72 h, MTT
Experimental: as §3

Hep-2 = assay: Solid tumor cell growth inhibition, MTT, 72 h; assay type: cell-based, human; details: Homo sapiens, HEp-2; 72 h, MTT
Experimental: as §3

MGC-803 = assay: Solid tumor cell growth inhibition, MTT, 72 h; assay type: cell-based, human; details: Homo sapiens, MGC-803; 72 h, MTT
Experimental: as §3

A549 = assay: Solid tumor cell growth inhibition, MTT, 72 h; assay type: cell-based; details: Homo sapiens
Experimental: as §3

Becap-37 = assay: Solid tumor cell growth inhibition, MTT, 72 h; assay type: cell-based; details: Homo sapiens
Experimental: as §3

CaEs-17 = assay: Solid tumor cell growth inhibition, MTT, 72 h; assay type: cell-based; details: Homo sapiens, CaEs17
Experimental: as §3

Hep G2 = assay: Solid tumor cell growth inhibition, MTT, 72 h; assay type: cell-based; details: Homo sapiens, HepG2
Experimental: as §3

MG-63 = assay: Solid tumor cell growth inhibition, MTT, 72 h; assay type: cell-based; details: Homo sapiens
Experimental: as §3

PANC-1 = assay: Solid tumor cell growth inhibition, MTT, 72 h; assay type: cell-based; details: Homo sapiens
Experimental: as §3

PC-3 = assay: Solid tumor cell growth inhibition, MTT, 72 h; assay type: cell-based; details: Homo sapiens
Experimental: as §3

RKO = assay: Solid tumor cell growth inhibition, MTT, 72 h; assay type: cell-based; details: Homo sapiens
Experimental: as §3

SK-OV-3 = assay: Solid tumor cell growth inhibition, MTT, 72 h; assay type: cell-based; details: Homo sapiens, SK-OV-3, 72 h, MTT; for IC50: read-out: IC50 SK-OV-3; for IC90: read-out: IC90 SK-OV-3
Experimental: as §3

U87-MG = assay: Solid tumor cell growth inhibition, MTT, 72 h; assay type: cell-based; details: Homo sapiens, U-87 MG
Experimental: as §3

## C=C1C(=O)[C@]23[C@H](OC(=O)c4ccc(Cl)cc4)[C@H]1CC[C@H]2[C@@]12CO[C@@]3(O)[C@@H](O)[C@@H]1C(C)(C)CC[C@@H]2OC(C)=O [BS-OR-093]
K562/ADR
  IC50: 0.37 µg/mL (≈ 0.679 µM)
  IC90: 1.57 µg/mL (≈ 2.88 µM)
Kasumi-1
  IC50: 0.41 µg/mL (≈ 0.752 µM)
  IC90: 1.31 µg/mL (≈ 2.4 µM)
H9
  IC50: 0.06 µg/mL (≈ 0.11 µM)
  IC90: 0.33 µg/mL (≈ 0.605 µM)
H9; as compared with oridonin
  anti-H9 cell line activity increased: 22 fold
Jurkat
  IC50: 0.44 µg/mL (≈ 0.807 µM)
  IC90: 3.03 µg/mL (≈ 5.56 µM)
NB4
  IC50: 0.05 µg/mL (≈ 0.0917 µM)
  IC90: 0.47 µg/mL (≈ 0.862 µM)
NB4; as compared with oridonin
  anti-NB4 cell line activity increased: 15 fold
RPMI 8226
  IC50: 0.2 µg/mL (≈ 0.367 µM)
  IC90: 1.55 µg/mL (≈ 2.84 µM)
CNE
  IC50: 1.31 µg/mL (≈ 2.4 µM)
  IC90: 5.02 µg/mL (≈ 9.21 µM)
Hela
  IC50: 1.02 µg/mL (≈ 1.87 µM)
  IC90: 3.45 µg/mL (≈ 6.33 µM)
Hep-2
  IC50: 1.42 µg/mL (≈ 2.61 µM)
  IC90: 6.91 µg/mL (≈ 12.7 µM)
MGC-803
  IC50: 0.79 µg/mL (≈ 1.45 µM)
  IC90: 6.73 µg/mL (≈ 12.3 µM)
A549
  IC50: 1.78 µg/mL (≈ 3.27 µM)
  IC90: 6.68 µg/mL (≈ 12.3 µM)
Becap-37
  IC50: 1.1 µg/mL (≈ 2.02 µM)
  IC90: 1.99 µg/mL (≈ 3.65 µM)
CaEs-17
  IC50: 0.86 µg/mL (≈ 1.58 µM)
  IC90: 5.21 µg/mL (≈ 9.56 µM)
Hep G2
  IC50: 0.96 µg/mL (≈ 1.76 µM)
  IC90: 7.13 µg/mL (≈ 13.1 µM)
MG-63
  IC50: 0.45 µg/mL (≈ 0.826 µM)
  IC90: 2.31 µg/mL (≈ 4.24 µM)
PANC-1
  IC50: 1.69 µg/mL (≈ 3.1 µM)
  IC90: 9.36 µg/mL (≈ 17.2 µM)
PC-3
  IC50: 1.6 µg/mL (≈ 2.94 µM)
  IC90: 5.12 µg/mL (≈ 9.39 µM)
RKO
  IC50: 0.41 µg/mL (≈ 0.752 µM)
  IC90: 0.92 µg/mL (≈ 1.69 µM)
SK-OV-3
  IC50: 1.6 µg/mL (≈ 2.94 µM)
  IC90: 5.12 µg/mL (≈ 9.39 µM)
U87-MG
  IC50: 0.56 µg/mL (≈ 1.03 µM)
  IC90: 1.89 µg/mL (≈ 3.47 µM)

## C=C1C(=O)[C@]23[C@H](OC(=O)C4CC4)[C@H]1CC[C@H]2[C@@]12CO[C@@]3(O)[C@@H](O)[C@@H]1C(C)(C)CCC2=O [BS-OR-017]
K562/ADR
  IC50: 0.52 µg/mL (≈ 1.21 µM)
  IC90: 1.9 µg/mL (≈ 4.41 µM)
Kasumi-1
  IC50: 0.69 µg/mL (≈ 1.6 µM)
  IC90: 1.7 µg/mL (≈ 3.95 µM)
H9
  IC50: 0.53 µg/mL (≈ 1.23 µM)
  IC90: 0.98 µg/mL (≈ 2.28 µM)
Jurkat
  IC50: 0.92 µg/mL (≈ 2.14 µM)
  IC90: 5.63 µg/mL (≈ 13.1 µM)
NB4
  IC50: 0.14 µg/mL (≈ 0.325 µM)
  IC90: 0.82 µg/mL (≈ 1.9 µM)
RPMI 8226
  IC50: 0.5 µg/mL (≈ 1.16 µM)
  IC90: 1.88 µg/mL (≈ 4.37 µM)
CNE
  IC50: 1.13 µg/mL (≈ 2.62 µM)
  IC90: 4.96 µg/mL (≈ 11.5 µM)
Hela
  IC50: 1.35 µg/mL (≈ 3.14 µM)
  IC90: 3.86 µg/mL (≈ 8.97 µM)
Hep-2
  IC50: 1.62 µg/mL (≈ 3.76 µM)
  IC90: 6.93 µg/mL (≈ 16.1 µM)
MGC-803
  IC50: 0.91 µg/mL (≈ 2.11 µM)
  IC90: 4.16 µg/mL (≈ 9.66 µM)
A549
  IC50: 2.93 µg/mL (≈ 6.81 µM)
  IC90: 6.29 µg/mL (≈ 14.6 µM)
Becap-37
  IC50: 1.13 µg/mL (≈ 2.62 µM)
  IC90: 4.58 µg/mL (≈ 10.6 µM)
CaEs-17
  IC50: 1.32 µg/mL (≈ 3.07 µM)
  IC90: 5.89 µg/mL (≈ 13.7 µM)
Hep G2
  IC50: 1.61 µg/mL (≈ 3.74 µM)
  IC90: 8.04 µg/mL (≈ 18.7 µM)
MG-63
  IC50: 0.47 µg/mL (≈ 1.09 µM)
  IC90: 1.8 µg/mL (≈ 4.18 µM)
PANC-1
  IC50: 1.96 µg/mL (≈ 4.55 µM)
  IC90: 5.76 µg/mL (≈ 13.4 µM)
PC-3
  IC50: 1.99 µg/mL (≈ 4.62 µM)
  IC90: 3.92 µg/mL (≈ 9.11 µM)
RKO
  IC50: 0.6 µg/mL (≈ 1.39 µM)
  IC90: 1.91 µg/mL (≈ 4.44 µM)
SK-OV-3
  IC50: 1.99 µg/mL (≈ 4.62 µM)
  IC90: 3.92 µg/mL (≈ 9.11 µM)
U87-MG
  IC50: 1.24 µg/mL (≈ 2.88 µM)
  IC90: 3.64 µg/mL (≈ 8.46 µM)

## C=C1C(=O)[C@]23[C@H](OC(=O)/C=C/c4ccccc4)[C@H]1CC[C@H]2[C@@]12CO[C@@]3(O)[C@@H](O)[C@@H]1C(C)(C)CCC2=O [BS-OR-019]
K562/ADR
  IC50: 0.43 µg/mL (≈ 0.873 µM)
  IC90: 1.74 µg/mL (≈ 3.53 µM)
Kasumi-1
  IC50: 0.58 µg/mL (≈ 1.18 µM)
  IC90: 1.55 µg/mL (≈ 3.15 µM)
H9
  IC50: 2.69 µg/mL (≈ 5.46 µM)
  IC90: 5.41 µg/mL (≈ 11 µM)
Jurkat
  IC50: 0.58 µg/mL (≈ 1.18 µM)
  IC90: 2.48 µg/mL (≈ 5.03 µM)
NB4
  IC50: 1.02 µg/mL (≈ 2.07 µM)
  IC90: 3.66 µg/mL (≈ 7.43 µM)
RPMI 8226
  IC50: 0.34 µg/mL (≈ 0.69 µM)
  IC90: 1.7 µg/mL (≈ 3.45 µM)
CNE
  IC50: 7.19 µg/mL (≈ 14.6 µM)
  IC90: > 16 µg/mL
Hela
  IC50: 1.43 µg/mL (≈ 2.9 µM)
  IC90: 3.74 µg/mL (≈ 7.59 µM)
Hep-2
  IC50: 10.7 µg/mL (≈ 21.7 µM)
  IC90: > 16 µg/mL
MGC-803
  IC50: 4.98 µg/mL (≈ 10.1 µM)
  IC90: 12 µg/mL (≈ 24.4 µM)
A549
  IC50: 1.66 µg/mL (≈ 3.37 µM)
  IC90: 4.43 µg/mL (≈ 8.99 µM)
Becap-37
  IC50: 0.89 µg/mL (≈ 1.81 µM)
  IC90: 8.43 µg/mL (≈ 17.1 µM)
CaEs-17
  IC50: 0.89 µg/mL (≈ 1.81 µM)
  IC90: 5.62 µg/mL (≈ 11.4 µM)
Hep G2
  IC50: 0.94 µg/mL (≈ 1.91 µM)
  IC90: 14.6 µg/mL (≈ 29.7 µM)
MG-63
  IC50: 0.35 µg/mL (≈ 0.711 µM)
  IC90: 0.79 µg/mL (≈ 1.6 µM)
PANC-1
  IC50: 1.53 µg/mL (≈ 3.11 µM)
  IC90: 9.62 µg/mL (≈ 19.5 µM)
PC-3
  IC50: 1.41 µg/mL (≈ 2.86 µM)
  IC90: 3.86 µg/mL (≈ 7.84 µM)
RKO
  IC50: 0.38 µg/mL (≈ 0.771 µM)
  IC90: 0.89 µg/mL (≈ 1.81 µM)
SK-OV-3
  IC50: 1.41 µg/mL (≈ 2.86 µM)
  IC90: 3.86 µg/mL (≈ 7.84 µM)
U87-MG
  IC50: 0.77 µg/mL (≈ 1.56 µM)
  IC90: 2.43 µg/mL (≈ 4.93 µM)
